Reference: paper PMC7997389 (Biochemical and Biophysical Research Communications, 2021)

Tests used:
[1] = system: SARS-CoV-2-GHB-03021/2020; conditions: hamster, in vivo
SARS-CoV-2 [2] = conditions: monotherapy; cited from earlier work
human cathepsin L = human cathepsin L (Homo sapiens, UniProt P07711); experiment: human cathepsin L biochemical assay; conditions: 3CLpro versus cathepsin L
SARS-CoV-2 [3] = conditions: cited from earlier work
SARS-CoV-2 [4] = conditions: cited from earlier work; remark: listed apart in the source
3CLpro = conditions: cited from earlier work
[5] = Cytotoxicity in HeLa cells; assay type: cell-based; conditions: human
[6] = system: human alpha-coronavirus 229E; experiment: organism not typed; assay type: cell-based; conditions: Huh-7, 96 h, read-out: α-CoV 229E (Huh-7) EC50

Chain of human cathepsin L (P07711 114-333): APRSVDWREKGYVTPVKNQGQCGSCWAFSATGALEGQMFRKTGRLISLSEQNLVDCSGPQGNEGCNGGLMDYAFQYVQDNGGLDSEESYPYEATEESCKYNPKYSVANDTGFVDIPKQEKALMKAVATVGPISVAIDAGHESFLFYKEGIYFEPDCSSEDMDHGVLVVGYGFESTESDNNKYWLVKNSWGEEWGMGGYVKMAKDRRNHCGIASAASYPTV

## CC(C)C(=O)OC[C@H]1O[C@@H](n2ccc(NO)nc2=O)[C@H](O)[C@@H]1O [EIDD-2801]
[1]
  reduction in viral RNA copies per mg of lung tissue: 2.0 log10
  reduction of infectious virus titers in the lungs: 4.1 log10 TCID50 per mg

## CC(C)C[C@H](NC(=O)OCc1ccccc1)C(=O)N[C@@H](CC1CCNC1=O)C(O)S(=O)(=O)[O-].[Na+] (stereo partly shown) [GC-376]
SARS-CoV-2 [2]
  antiviral effect in a mouse model of SARS-CoV-2 infection: failed to show a clear antiviral effect
Human cathepsin L
  selectivity against human cathepsin L in comparison with ALG-097111: significantly less selective
SARS-CoV-2 [3]
  antiviral activity in the K18-hACE2 SARS-CoV-2 infection mouse model: modest antiviral activity

## CN1CCN(C(=O)N[C@@H](Cc2ccccc2)C(=O)N[C@H](/C=C/S(=O)(=O)c2ccccc2)CCc2ccccc2)CC1 [K117777]
SARS-CoV-2 [4]; A549-ACE2 expressing TMPRSS2
  antiviral effect when TMPRSS2 was expressed: abolished
SARS-CoV-2 [4]; VeroE6, A549-ACE2 and HeLa-ACE2
  inhibition of SARS-CoV-2 in cells: potent inhibition
3CLpro
  inhibitory effect on the 3CLpro: lacks an inhibitory effect

## CCC(CC)COC(=O)[C@H](C)N[P@](=O)(OC[C@H]1O[C@@](C#N)(c2ccc3c(N)ncnn23)[C@H](O)[C@@H]1O)Oc1ccccc1 [Remdesivir]
[5]
  CC50: > 5000 nM
[6]
  EC50: 14.5 ± 3.48 nM
